# US20260049076A1, “Tertiary Amine Substituted Bicyclic Compounds Useful as T Cell Activators” (BRISTOL-MYERS SQUIBB COMPANY, priority 2022, published 2026)
# How the values were obtained:
# [1] = molecular target: T1, human DGKζ (Homo sapiens, UniProt Q13574); experiment: In vitro DGK inhibition assay, DGKζ liposome (LIPGLO) assay; type: biochemical; details: read-out: Enzyme Inhibition DGKzeta IC50
# T1 construct: TVMV protease cleavage site (C); Hexa-His (C); made in house; host or cells: Sf9 insect cells (baculovirus)
# Experimental: (§1) The DGKα and DGKζ reactions were performed using either extruded liposome (DGKα and DGKζ LIPGLO assays) or detergent/lipid micelle substrate (DGKα and DGKζ assays). The reactions were carried out in 50 mM MOPS pH 7.5, 100 mM NaCl, 10 mM MgCl2, 1 μM CaCl2, and 1 mM DTT (assay buffer). The reactions using a detergent/lipid micelle substrate also contained 50 mM octyl B-D-glucopyranoside. The lipid substrate concentrations were 11 mM PS and 1 mM DAG for the detergent/lipid micelle reactions. The lipid substrate concentrations were 2 mM PS, 0.25 mM DAG, and 2.75 mM PC for the extruded liposome reactions (5 mM total lipid). The reactions were carried out in 150 μM ATP The enzyme concentrations for the DGKα and DGKζ were 5 nM
# (§2) The compound inhibition studies were carried out as follows: 25 nL (ADPGLO assay) or 50 nL (LIPGLO assay) droplets of each test compound (top concentration 10 mM with 11 point, 3-fold dilution series for each compound) solubilized in DMSO were transferred to wells of a white 1536 well plate (Corning 3725). A 5 mL enzyme/lipid substrate solution at 2× final reaction concentration was prepared by combining 2.5 mL 4× enzyme solution (20 nM DGKα, or DGKζ (prepared as described below) in assay buffer) and 2.5 mL of either 4× liposome or 4× detergent/lipid micelle solution (compositions described below) and incubated at room temperature for 10 minutes. Next, 1 μL 2× enzyme/lipid substrate solution was added to wells containing the test compound and reactions were initiated with the addition of 1 μL 300 uM ATP. The reactions were allowed to proceed for 2 hr (ADPGLO assay) or 1 hr (LIPGLO assay), after which 2 μL Glo Reagent (Promega V9101) was added and incubated for 40 minutes. Next, 4 μL Kinase Detection Reagent was added and incubated for 30 minutes. Luminescence was recorded using an EnVision microplate reader. […] The compounds were evaluated at 11 concentrations to determine IC50.
# (§3) The lipid composition was 5 mol % DAG (Avanti 8008110), 40 mol % PS (Avanti 840035P), and 55 mol % PC (Avanti 850457) at a total lipid concentration of 7-8 mg/mL for the liposome solution. The PC, DAG, and PS were dissolved in chloroform, combined, and dried in vacuo to a thin film. The lipids were hydrated to 20 mM in 50 mM MOPS pH 7.5, 100 mM NaCl, 5 mM MgCl2, and were freeze-thawed five times. The lipid suspension was extruded through a 100 nm polycarbonate filter 10-12 times. […] The liposome preparation was stored at 4° C. for as long as four weeks.
# as §3, with “15.2” for “7-8”, “the 4×” for “the”, “eleven” for “10-12”
# (§4) Human DGK-alpha-TVMV-His-pFBgate and human DGK-zeta-transcript variant-2-TVMV-His-pFBgate baculovirus samples were generated using the Bac-to-Bac baculovirus expression system (Invitrogen) according to the manufacturer's protocol. […] Baculovirus amplification was achieved using infected Sf9 cells at 1:1500 virus/cell ratios, and grown for 65 hours at 27° C. post-transfection.
# (§5) The expression scale up for each protein was carried out in the Cellbag 50L WAVE-Bioreactor System 20/50 from GE Healthcare Bioscience. 12 L of 2×10^6 cells/mL Sf9 cells (Expression System, Davis, CA) grown in ESF921 insect medium (Expression System) were infected with virus stock at 1:200 virus/cell ratios, and grown for 66-68 hours at 27° C. post-infection.
# [2] = molecular target: T2, human DGKα (Homo sapiens, UniProt P23743); experiment: In vitro DGK inhibition assay, DGKα liposome (LIPGLO) assay; type: biochemical; details: read-out: Enzyme Inhibition DGKalpha IC50
# T2 construct: TVMV protease cleavage site (C); Hexa-His (C); made in house; host or cells: Sf9 insect cells (baculovirus)
# Experimental: as §1, §2, §3
# as §3, with “15.2” for “7-8”, “the 4×” for “the”, “eleven” for “10-12”
# as §4, §5
# T1 sequence (Q13574 with tags, fused parts or gaps isoform Q13574-4): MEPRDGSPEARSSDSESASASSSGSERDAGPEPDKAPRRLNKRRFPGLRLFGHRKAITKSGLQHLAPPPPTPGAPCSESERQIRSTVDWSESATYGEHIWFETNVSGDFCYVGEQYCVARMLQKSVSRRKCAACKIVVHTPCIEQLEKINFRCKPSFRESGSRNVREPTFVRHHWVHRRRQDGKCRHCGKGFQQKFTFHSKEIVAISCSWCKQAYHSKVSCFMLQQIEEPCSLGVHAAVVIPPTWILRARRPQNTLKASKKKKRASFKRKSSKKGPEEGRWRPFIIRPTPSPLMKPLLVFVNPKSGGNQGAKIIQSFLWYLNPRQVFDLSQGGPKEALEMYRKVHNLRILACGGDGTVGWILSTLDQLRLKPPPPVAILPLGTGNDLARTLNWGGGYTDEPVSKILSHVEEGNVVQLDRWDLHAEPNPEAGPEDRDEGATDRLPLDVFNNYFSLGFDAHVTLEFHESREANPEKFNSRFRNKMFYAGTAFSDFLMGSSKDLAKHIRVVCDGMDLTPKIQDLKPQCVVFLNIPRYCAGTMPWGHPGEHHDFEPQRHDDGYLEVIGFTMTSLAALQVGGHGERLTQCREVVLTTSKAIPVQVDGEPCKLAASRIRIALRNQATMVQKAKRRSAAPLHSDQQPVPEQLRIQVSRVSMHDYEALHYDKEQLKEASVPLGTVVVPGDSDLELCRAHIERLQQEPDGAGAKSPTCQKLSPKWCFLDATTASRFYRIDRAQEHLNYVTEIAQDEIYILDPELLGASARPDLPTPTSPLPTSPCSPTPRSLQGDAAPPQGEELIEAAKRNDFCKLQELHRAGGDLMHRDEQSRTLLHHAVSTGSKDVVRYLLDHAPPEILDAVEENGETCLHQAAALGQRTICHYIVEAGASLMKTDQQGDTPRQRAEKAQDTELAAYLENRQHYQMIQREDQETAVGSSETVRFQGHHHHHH
# T2 sequence (P23743 with tags, fused parts or gaps): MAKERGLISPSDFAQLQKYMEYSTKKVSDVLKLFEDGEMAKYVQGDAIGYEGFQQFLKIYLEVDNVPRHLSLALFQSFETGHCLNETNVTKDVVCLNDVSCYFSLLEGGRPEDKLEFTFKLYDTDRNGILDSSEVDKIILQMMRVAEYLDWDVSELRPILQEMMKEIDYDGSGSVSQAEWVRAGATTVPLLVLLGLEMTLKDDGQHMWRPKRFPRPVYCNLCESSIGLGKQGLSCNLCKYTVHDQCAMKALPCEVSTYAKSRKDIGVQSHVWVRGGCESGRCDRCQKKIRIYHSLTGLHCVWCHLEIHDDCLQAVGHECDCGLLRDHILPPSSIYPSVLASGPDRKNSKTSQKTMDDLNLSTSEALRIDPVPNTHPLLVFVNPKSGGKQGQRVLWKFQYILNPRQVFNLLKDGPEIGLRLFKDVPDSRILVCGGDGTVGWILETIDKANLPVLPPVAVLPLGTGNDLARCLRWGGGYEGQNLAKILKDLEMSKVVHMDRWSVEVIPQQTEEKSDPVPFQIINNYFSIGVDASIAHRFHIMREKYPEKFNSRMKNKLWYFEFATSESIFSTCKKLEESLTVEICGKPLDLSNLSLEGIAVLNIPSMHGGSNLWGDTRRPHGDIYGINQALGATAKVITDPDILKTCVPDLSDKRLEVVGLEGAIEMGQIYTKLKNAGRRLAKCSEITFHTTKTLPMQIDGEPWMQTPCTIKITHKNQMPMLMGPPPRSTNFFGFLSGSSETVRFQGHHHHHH
SMILES,IC50 [1] [µM],IC50 [2] [µM]
"CC(C1CC1)N(C)c1c(C#N)c(=O)n(C)c2ccc(Br)nc12 (racemic) [Example 9, 6-bromo-4-((1-cyclopropylethyl)(methyl)amino)-1-methyl-2-oxo-1,2-dihydro-1,5-naphthyridine-3-carbonitrile]",7.1,
"CC(C1CC1)N(C)c1cc(=O)n(C)c2ccc(C#N)nc12 (racemic) [Example 32, 8-((1-cyclopropylethyl)(methyl)amino)-5-methyl-6-oxo-5,6-dihydro-1,5-naphthyridine-2-carbonitrile]",90,1.4
"COc1ccc(-c2cccc(N(C)c3nc(=O)n(C)c4ccc(C#N)nc34)c2)cc1 [Example 2, 4-((4′-methoxy-[1,1′-biphenyl]-3-yl)(methyl)amino)-1-methyl-2-oxo-1,2-dihydropyrido[3,2-d]pyrimidine-6-carbonitrile]",> 38,> 38
"CN(c1cccc(-c2ccc(OC(F)(F)F)cc2)c1)c1nc(=O)n(C)c2ccc(C#N)nc12 [Example 3, 1-methyl-4-(methyl(4′-(trifluoromethoxy)-[1,1′-biphenyl]-3-yl)amino)-2-oxo-1,2-dihydropyrido[3,2-d]pyrimidine-6-carbonitrile]",> 38,1.8
"CN(c1cccc(-c2ccc(C3CC3)cc2)c1)c1cc(=O)n(C)c2ccc(C#N)nc12 [Example 4, 8-((4′-cyclopropyl-[1,1′-biphenyl]-3-yl)(methyl)amino)-5-methyl-6-oxo-5,6-dihydro-1,5-naphthyridine-2-carbonitrile]",> 38,0.049
"COc1ccc(-c2cccc(N(C)c3cc(=O)n(C)c4ccc(C#N)nc34)c2)cc1 [Example 5, 8-((4′-methoxy-[1,1′-biphenyl]-3-yl)(methyl)amino)-5-methyl-6-oxo-5,6-dihydro-1,5-naphthyridine-2-carbonitrile]",32,0.18
"CN(c1c(C#N)c(=O)n(C)c2ccc(Br)nc12)C1CCCCC1 [Example 7, 6-bromo-4-[cyclohexyl(methyl)amino]-1-methyl-2-oxo-1,2-dihydro-1,5-naphthyridine-3-carbonitrile]",21,
"CC1CCC(N(C)c2c(C#N)c(=O)n(C)c3ccc(Br)nc23)CC1 (stereo not shown) [Example 8, 6-bromo-1-methyl-4-(methyl(4-methylcyclohexyl)amino)-2-oxo-1,2-dihydro-1,5-naphthyridine-3-carbonitrile]",31,
"CN(c1c(C#N)c(=O)n(C)c2ccc(C#N)nc12)C1CCCCC1 [Example 10, 8-[cyclohexyl(methyl)amino]-5-methyl-6-oxo-5,6-dihydro-1,5-naphthyridine-2,7-dicarbonitrile]",4,
"CC(C1CC1)N(C)c1c(C#N)c(=O)n(C)c2ccc(C#N)nc12 (stereo not shown) [Example 11, 8-[(1-cyclopropylethyl)(methyl)amino]-5-methyl-6-oxo-5,6-dihydro-1,5-naphthyridine-2,7-dicarbonitrile]",7.3,
"COc1ccc2c(n1)c(N(C)C1CCCCC1)c(C#N)c(=O)n2C [Example 12, 4-[cyclohexyl(methyl)amino]-6-methoxy-1-methyl-2-oxo-1,2-dihydro-1,5-naphthyridine-3-carbonitrile]",84,
"Cc1ccc2c(n1)c(N(C)C1CCCCC1)c(C#N)c(=O)n2C [Example 13, 4-[cyclohexyl(methyl)amino]-1,6-dimethyl-2-oxo-1,2-dihydro-1,5-naphthyridine-3-carbonitrile]",2.7,0.29
"Cc1ccc2c(n1)c(N(C)C(C)C1CC1)c(C#N)c(=O)n2C (stereo not shown) [Example 14, 4-[(1-cyclopropylethyl)(methyl)amino]-1,6-dimethyl-2-oxo-1,2-dihydro-1,5-naphthyridine-3-carbonitrile]",29,
"CC(C1CC1)N(C)c1c(C#N)c(=O)n(C)c2ccc(CC#N)nc12 (stereo not shown) [Example 15, 6-(cyanomethyl)-4-[(1-cyclopropylethyl)(methyl)amino]-1-methyl-2-oxo-1,2-dihydro-1,5-naphthyridine-3-carbonitrile]",7.1,
"C#CCn1c(=O)c(C#N)c(N(C)C2CCCCC2)c2nc(Br)ccc21 [Example 16, 6-bromo-4-[cyclohexyl(methyl)amino]-2-oxo-1-(prop-2-yn-1-yl)-1,2-dihydro-1,5-naphthyridine-3-carbonitrile]",12,
"C#CCn1c(=O)c(C#N)c(N(C)C2CCCCC2)c2nc(C#N)ccc21 [Example 17, 8-[cyclohexyl(methyl)amino]-6-oxo-5-(prop-2-yn-1-yl)-5,6-dihydro-1,5-naphthyridine-2,7-dicarbonitrile]",3.6,2
"CN(c1cc(=O)n(C)c2ccc(C#N)nc12)C1CCCCC1 [Example 19, 8-(cyclohexyl(methyl)amino)-5-methyl-6-oxo-5,6-dihydro-1,5-naphthyridine-2-carbonitrile]",12,
"Cc1ccc(N(C)c2cc(=O)n(C)c3ccc(C#N)nc23)cc1 [Example 20, 5-methyl-8-(methyl(p-tolyl)amino)-6-oxo-5,6-dihydro-1,5-naphthyridine-2-carbonitrile]",36,0.73
"CN(c1cccc(C#N)c1)c1cc(=O)n(C)c2ccc(C#N)nc12 [Example 21, 8-((3-cyanophenyl)(methyl)amino)-5-methyl-6-oxo-5,6-dihydro-1,5-naphthyridine-2-carbonitrile]",> 125,
"Cc1cccc(N(C)c2cc(=O)n(C)c3ccc(C#N)nc23)c1 [Example 22, 5-methyl-8-(methyl(m-tolyl)amino)-6-oxo-5,6-dihydro-1,5-naphthyridine-2-carbonitrile]",4.7,1.3
"CN(c1ccc(F)cc1)c1cc(=O)n(C)c2ccc(C#N)nc12 [Example 23, 8-((4-fluorophenyl)(methyl)amino)-5-methyl-6-oxo-5,6-dihydro-1,5-naphthyridine-2-carbonitrile]",4.9,0.11
"COc1ccc(N(C)c2cc(=O)n(C)c3ccc(C#N)nc23)cc1 [Example 24, 8-((4-methoxyphenyl)(methyl)amino)-5-methyl-6-oxo-5,6-dihydro-1,5-naphthyridine-2-carbonitrile]",3.2,0.65
"Cc1ccccc1N(C)c1cc(=O)n(C)c2ccc(C#N)nc12 [Example 26, 5-methyl-8-(methyl(o-tolyl)amino)-6-oxo-5,6-dihydro-1,5-naphthyridine-2-carbonitrile]",37,0.96
"CN(c1ccc(F)c(F)c1)c1cc(=O)n(C)c2ccc(C#N)nc12 [Example 28, 8-((3,4-difluorophenyl)(methyl)amino)-5-methyl-6-oxo-5,6-dihydro-1,5-naphthyridine-2-carbonitrile]",120,0.44
"CN(c1ccc(Cl)cc1)c1cc(=O)n(C)c2ccc(C#N)nc12 [Example 29, 8-((4-chlorophenyl)(methyl)amino)-5-methyl-6-oxo-5,6-dihydro-1,5-naphthyridine-2-carbonitrile]",17,0.45
"Cn1c(=O)cc(N(CC2CC2)c2ccc(C3CC3)cn2)c2nc(C#N)ccc21 [Example 46, 8-((cyclopropylmethyl)(5-cyclopropylpyridin-2-yl)amino)-5-methyl-6-oxo-5,6-dihydro-1,5-naphthyridine-2-carbonitrile]",0.99,
